Laboratory results as given in patent US11890279B2, “Quinolines that modulate SERCA and their use for treating disease” (Neurodon Corporation, priority 2020, dated 2024).
Like-named read-outs stand apart in the source and are kept apart here.

Legend:
SERCA (SR vesicles) = test: Activation of SERCA, increase in Vmax; type: biochemical
Description: Test compounds were characterized over a range of concentrations using an NADH-linked, enzyme-coupled ATPase assay. Each well contained 2 mg or 7 mg of SR vesicles (optimized for skeletal or cardiac SR, respectively), 50 mM MOPS (pH 7.0), 100 mM KCl, 5 mM MgCl2, 1 mM EGTA, 0.2 mM NADH, 1 mM phosphoenol pyruvate, 5 IU pyruvate kinase, 5 IU lactate dehydrogenase, and 3.5 mg/mL A23187 (a calcium ionophore), and CaCl2 was added to set free [Ca2+] to the specific values. The assay was started upon addition of ATP at a final concentration of 5 mM, and read in a SpectraMax Plus microplate spectrophotometer and the ATPase activities were fitted using the Hill function.

N2a cells [1] = test: Protection against thapsigargin (TG)-induced cell death, N2a; type: cell-based, mouse; settings: compound 20 μM; thapsigargin 1 μM; 24 hrs
Description: (§1) Protection against Thapsigargin (TG)-induced Cell-death. Human embryonic kidney (HEK293) cells were grown in Dulbecco's Modified Eagle's Medium (DMEM) with 10% FBS and 1% antibiotic antimycotic solution (ABAM). Mouse neuroblastoma (N2a) cells were grown in 1:1 DMEM:OPTI-MEM® with 5% FBS and 1% ABAM. All cells were grown in 10% CO2 in a humidified environment of the incubator. Cells grown in 96-well plates were exposed to a test compound (20 μM) for 2 hrs before addition of thapsigargin (15 μM for HEK293 cells and 1 μM for N2a cells) to induce ER stress. After incubation in cell-culture incubator for 24 hrs, ALAMARBLUE® regent (10% v/v) was added to the wells. Fluorescence reading was taken 2 hrs after the addition of the ALAMARBLUE® regent. Cell-viability was calculated as a percentage of relative fluorescence unit (RFU) compared to control.
(§2) The results are summarized in Table 2, where A represents a value greater than 50% cell rescue, B represents a value between 10% to 50% cell rescue, C represents a value between 1% to 10% cell rescue, and D represents a value no greater than 1% cell rescue.

HEK293 cells = test: Protection against thapsigargin (TG)-induced cell death, HEK293; type: cell-based, human; settings: compound 20 μM; thapsigargin 15 μM; 24 hrs
Description: as §1, §2

N2a cells [2] = test: Protection against hydrogen peroxide-induced cell death, N2a; type: cell-based, mouse; settings: compound 40 μM; hydrogen peroxide 200 μM
Description: Protection against Hydrogen Peroxide-induced Cell-death. N2a cells grown in 96-well plates were exposed to a test compound (40 μM) for 2 hrs before addition of hydrogen peroxide (200 μM). After 40 min of incubation with hydrogen peroxide, ALAMARBLUE® regent (10% v/v) was added to the wells. Fluorescence reading was taken 2 hrs after the addition of the ALAMARBLUE® regent. Cell-viability was calculated as a percentage of relative fluorescence unit (RFU) compared to control.
as §2

human islet microtissues = test: Protection of human pancreatic islets under cytokine stress; type: cell-based; settings: 168 h, compound 5 μM, cytokine cocktail IL1-β, IFN-γ, TNF-α, 7 days, read-out: increase in viability over baseline (total ATP content)
Description: Human pancreatic islet microtissues treated with cytokines were used to model the conditions of Type 1 Diabetes in vitro. This study tested the effects of compounds on […] viability in human islets under cytokine stress. The model consisted of human islet microtissues from an HLA-A2 positive donor grown and separated in a 96-well plate (1 microtissue per well). The microtissues were treated for 7 days with a cocktail of cytokines (IL1-β 5 ng/mL, IFN-γ 25 ng/mL, TNF-α 25 ng/mL) and compound (5 μM) or vehicle. There were 6 microtissues treated per compound or vehicle. At day 7, the total ATP content was measured using CellTiter-Glo (Promega).

[3] = Pharmacokinetics in Sprague Dawley rats; type: in vivo, rat; settings: rat; for AUC(0-t): read-out: AUC0-t; for MRT inf: read-out: MRT0-∞
Description: Blood was drawn at 5 min, 15 min, 30 min, 1 hr, 2 hrs, 4 hrs, 6 hrs, and 8 hrs into EDTA containing tubes and plasma was harvested by centrifugation. Plasma (25 μL) was treated with acetonitrile (125 μL) containing an internal standard. The sample was then centrifuged for 5 min at 4,000 rpm in a tabletop centrifuge and the filtrate was collected. The filtrate was injected onto a Thermo Betasil C18 HPLC column 5 (50×2.1 mm). Mobile Phase A was water with 0.1% formic acid. Mobile Phase B was acetonitrile with 0.1% formic acid. […] An API Sciex 4000 equipped with a turbo ion spray source was used for all analytical measurements. A positive ion MRM method was developed. Peak areas of the product ion were measured against the peak areas of the internal standard. Data was fit using WinNonLin (Pharsight Corporation, Mountain View, CA).

[4] = Pharmacokinetics in CD-1 mice; type: in vivo, mouse; settings: CD-1 mice
Description: Pharmacokinetics of test compounds were assessed in CD-1 mice. The compounds were formulated at 1 mg/mL in DMSO/Tween 80/water (10/10/80, vol/vol/vol) and dosed at 2 mg/kg intravenous (i.v.) or 10 mg/kg by oral gavage (P.O.) in triplicate. Blood was drawn at 0.25 h, 0.5 h, 1 hr, 2 hrs, 4 hrs, 8 hrs, and 24 hrs into EDTA containing tubes and plasma was harvested by centrifugation. Plasma (10 μL) containing 50% acetonitrile in water (5 μL) was added to 200 μL of ACN containing an internal standard. The samples were vortexed for 30 s. After centrifugation at […] and 4,000 rpm for 15 min, the supernatant was diluted 3 times with water. Then, 20 μL of diluted supernatant was injected into the LC/MS/MS system for quantitative analysis. The samples were injected onto an Agilent ZORBAX XDB-Phenyl 5μ column (50×2.10 mm). Mobile Phase A was water with 0.1% formic acid. Mobile Phase B was acetonitrile with 0.1% formic acid. Separation was achieved using a gradient of 70% A/30% B to 0% A/100% B over 2.10 min. A Shimadzu LCMS-8050 equipped with a turbo ion spray source was used for all analytical measurements. A positive ion MRM method was developed. Peak areas of the product ion were measured against the peak areas of the internal standard. Data was fit using WinNonLin (Pharsight Corporation, Mountain View, CA).

CSM14.1 cells = test: ER stress cell survival assay (thapsigargin); type: cell-based; settings: compound 2 μM; about 15 μM thapsigargin; CSM14.1 cells;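 also: survival read as CellTiter-Glo luminescence after overnight incubation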
Description: ER Stress Cell Survival Assay
CSM14.1 cells were maintained in Complete Medium at 32° C.; wherein the Complete Medium contained Dulbecco's modified eagle medium (DMEM) with 10% fetal bovine serum (FSB), 1% L-glutamine, 100 IU/mL penicillin, and 100 μg/mL streptomycin. The cells were recovered from cultures by trypsinization and then seeded in 384 well plates (Greiner #781098) at a concentration of 1,000 cells/well in 20 μL of DMEM Assay Medium, wherein the DMEM Assay Medium contained 2% FBS, 100 IU/mL penicillin, and 100 μg/mL streptomycin. Seeding was performed using a MultiDrop Combi reagent broadcaster. The plates were incubated overnight at 32° C.
A test compound was prepared by 2-fold serial dilution in 100% DMSO using a BIOMEK® 2000 liquid handler (Beckman Coulter). A dose-response curve containing 10 concentrations of the test compound was obtained. Using a BIOMEK® FX liquid handler (Beckman Coulter), 2.5 μL of the test compound was transferred from the 100% DMSO serial dilution plate to an intermediate plate containing 47.5 μL of DMEM Assay Medium containing 2% FBS, 100 IU/mL penicillin, and 100 μg/mL streptomycin and mixed. To reduce or eliminate the interference from the compound's precipitation, 6 μL of the diluted compound was immediately transferred to the assay plate to achieve a high compound concentration of 100 μM in 99% DMEM Assay Medium and 1% DMSO. After the assay plates were incubated for 2 hrs, 4 μL of 112.5 μM thapsigargin (TG) (DMSO stock diluted into Assay TC Medium) was dispensed into each testing well with a MultiDrop Combi reagent broadcaster for a final concentration of about 15 μM TG. The tissue culture media (4 μL) containing vehicle only was transferred manually to each control cell using a 16 channel electronic pipette. […] High luminescence indicates cell survival.
Alternatively, a test compound was tested at a single compound concentration (e.g., 2 μM) to determine the effect of the compound on cell survival in comparison with vehicle.

[5] = Sprague Dawley, in vivo, IV 2 mg/kg
[6] = Sprague Dawley, in vivo, PO 10 mg/kg
[7] = mouse, plasma, 2 mg/kg i.v. or 10 mg/kg P.O.

SMILES	Increase in Vmax at 10 μM (SERCA (SR vesicles))	N2a Cells (TG-induced) cell rescue (N2a cells [1])	HEK293 Cells (TG-induced) cell rescue (HEK293 cells)	N2a Cells (H2O2-induced) cell rescue (N2a cells [2])	further results
COc1ccc(C(=O)Nc2cccc3ccc(C)nc23)cc1 [Compound A8, 4-Methoxy-N-(2-methylquinolin-8-yl)benzamide]	C′ (C′ represents an increase no greater than 20%)	B (B represents a value between 10% to 50% cell rescue)	A (A represents a value greater than 50% cell rescue)	B (B represents a value between 10% to 50% cell rescue)	
COc1ccccc1C(=O)Nc1cccc2ccc(C)nc12 [Compound A9, 2-Methoxy-N-(2-methylquinolin-8-yl)benzamide]		A (A represents a value greater than 50% cell rescue)	A (A represents a value greater than 50% cell rescue)	B (B represents a value between 10% to 50% cell rescue)	
COc1c(C)cccc1C(=O)Nc1cccc2ccc(C)nc12 [Compound A19, 2-Methoxy-3-methyl-N-(2-methylquinolin-8-yl)benzamide]	A′ (A′ represents an increase greater than 50%)				viability at 5 µM (human islet microtissues): 20 to 50%; AUC(0-inf) [3, 5]: 309 ± 17 ng·h/mL; Cmax [3, 5]: 3850 ± 460 nM; Tmax [3, 5]: 1.2 min; clearance [3, 5]: 0.167 mL/min/kg; half-life [3, 5]: 27 min; AUC(0-t) [3, 5]: 299 ± 17 ng·h/mL; MRT inf [3, 5]: 27.6 min; AUC(0-inf) [3, 6]: 385 ± 99 ng·h/mL; Cmax [3, 6]: 1250 ± 400 nM; Tmax [3, 6]: 19.8 min; half-life [3, 6]: 26.4 min; AUC(0-t) [3, 6]: 375 ± 105 ng·h/mL; MRT inf [3, 6]: 45 min; F ([3]; PO 10 mg/kg vs IV 2 mg/kg): 25%
Cc1ccc2cccc(NC(=O)c3ccc(Br)s3)c2n1 [Compound B1, 5-Bromo-N-(2-methylquinolin-8-yl)thiophene-2-carboxamide]	B′ (B′ represents an increase between 20 to 50%)	B (B represents a value between 10% to 50% cell rescue)		A (A represents a value greater than 50% cell rescue)	F ([4]; 10 mg/kg P.O. vs 2 mg/kg i.v.): 2.9%; AUC [4, 7]: 21 ng·h/mL; Cmax [4, 7]: 80 nM; half-life [4, 7]: 42 min
N#Cc1cccc(C(=O)Nc2cccc3cccnc23)c1 [Compound B3, 3-Cyano-N-(quinolin-8-yl)benzamide]	C′ (C′ represents an increase no greater than 20%)	B (B represents a value between 10% to 50% cell rescue)	A (A represents a value greater than 50% cell rescue)	B (B represents a value between 10% to 50% cell rescue)	
Cc1ccc2cccc(NC(=O)c3ccc(C#N)cc3)c2n1 [Compound B4, 4-Cyano-N-(2-methylquinolin-8-yl)benzamide]		B (B represents a value between 10% to 50% cell rescue)	A (A represents a value greater than 50% cell rescue)	B (B represents a value between 10% to 50% cell rescue)	
Cc1ccc2cccc(NC(=O)c3ccccc3C(F)(F)F)c2n1 [Compound C5, 2-Trifluoromethyl-N-(2-methylquinolin-8-yl)benzamide]	B′ (B′ represents an increase between 20 to 50%)	A (A represents a value greater than 50% cell rescue)	A (A represents a value greater than 50% cell rescue)	B (B represents a value between 10% to 50% cell rescue)	Cell Survival (CSM14.1 cells): B (B represents a value between 10% and 50%)
Cc1ccc2cccc(NC(=O)c3ccc(C(F)(F)F)cc3)c2n1 [Compound C10, 4-Trifluoromethyl-N-(2-methylquinolin-8-yl)benzamide]		B (B represents a value between 10% to 50% cell rescue)	A (A represents a value greater than 50% cell rescue)	B (B represents a value between 10% to 50% cell rescue)	Cell Survival (CSM14.1 cells): D (D represents a value no greater than 1%)
